According to patent US4895589A, “Heterocyclic compounds” (Imperial Chemical Industries PLC, priority 1985, dated 1990):
Converted amounts (≈) assume the structure as drawn.

Columns and labels:
Vines = conditions: VN, 4000 ppm, 2-3 weeks
Experimental: (§1) The compounds were tested for plant growth regulator activity against up to tweleve plant species for various growth effects relevant to plant growth regulation.
(§2) Each chemical was applied at 4000 ppm (4 kg/ha in a 1000 l/ha field volume) using a tracksprayer and a SS8004E (Teejet) nozzle.
(§3) After spray, the plants were grown in a glasshouse with 25° C. day/22° C. night temperatures and supplementary lighting was supplied when necessary (from mercury vapour lamps), to provide a 16 hour photoperiod. The exception to this were the temperate cereals, wheat and barley, which were grown in 16° C. day 13° C. night temperatures
(§4) After 2-3 weeks in the glasshouse, depending on the time of year, the plants were visually assessed for morphological characteristics. Formulations blanks were used as controls to assess the Plants.

Maize = conditions: MZ, 4000 ppm, 2-3 weeks
Experimental: as §1, §2, §3, §4

Dacrylis glomerata = conditions: DA, 4000 ppm, 2-3 weeks
Experimental: as §1, §2, §3, §4

[1] = tested on: plants (broad species spectrum); experiment: Overall plant growth regulating effects in the Examples; type: in vivo; conditions: 1000 ppm rate
Sugar beet = conditions: SB, 4000 ppm, 2-3 weeks
Experimental: as §1, §2, §3, §4

Solubility in water = type: physicochemical
Half life in soil = type: physicochemical
Radish = conditions: RA, 4000 ppm, 2-3 weeks
Experimental: as §1, §2, §3, §4

Cynosurus cristatus = conditions: CC, 4000 ppm, 2-3 weeks
Experimental: as §1, §2, §3, §4

Lettuce = conditions: LT, 4000 ppm, 2-3 weeks
Experimental: as §1, §2, §3, §4

SMILES | Retardation score (1-3) with greening (G), apical damage (A), tillering/side shooting (T) (Vines) | Retardation score (1-3) with greening (G), apical damage (A), tillering/side shooting (T) (Maize) | Retardation score (1-3) with greening (G), apical damage (A), tillering/side shooting (T) (Dacrylis glomerata) | retardant activity on barley and rice versus apples [1] | Retardation score (1-3) with greening (G), apical damage (A), tillering/side shooting (T) (Sugar beet) | solubility (Solubility in water) | half-life (Half life in soil) | Retardation score (1-3) with greening (G), apical damage (A), tillering/side shooting (T) (Radish) | Retardation score (1-3) with greening (G), apical damage (A), tillering/side shooting (T) (Cynosurus cristatus) | Retardation score (1-3) with greening (G), apical damage (A), tillering/side shooting (T) (Lettuce)
CCCCC#CC(O)(Cn1cncn1)C(C)(C)C (stereo not shown) [Compound 1, 2,2-dimethyl-3-hydroxy-3-(hex-1-yne-1-yl)-4-(1,2,4-triazol-1-yl)-butane] | 1GT | 2GA | 2G | considerably more active as a cereal retardant on barley and rice than as a woody species retardant on apples | 1G | 1900 µg/mL (≈ 7.62 mM) | 7 to 14 days | 2G | 2G | –
CC(C)CC#CC(O)(Cn1cncn1)C(C)(C)C (stereo not shown) [Compound 7, 2,2-dimethyl-3-hydroxy-3-(4-methyl-pent-1-yne-1-yl)-4-(1,2,4-triazol-1-yl)-butane] | – | – | 1G | – | 1G | – | – | – | 2G | 1G
